Data reported in patent US10828284B2, “Compositions and methods for treating conditions related to elevated levels of eosinophils and/or basophils” (Knopp Biosciences LLC, priority 2013, dated 2020).
Read-outs that look alike come from different tables or passages of the source.

Key:
[1] = humans, exposures up to 18 months
eosinophils [2] = tested on: eosinophils
Method: (§1) The phase 3 clinical trial was a double-blind study of dexpramipexole in ALS patients randomized 1:1 to placebo or dexpramipexole 300 mg daily treatment. Hematology parameters were collected as part of routine safety monitoring. Eosinophil and basophil counts were retrospectively analyzed by visit.
Eosinophil levels were summarized over available time points and analyzed by ANOVA testing the effect of treatment vs. placebo on mean changes in serum eosinophil counts from baseline. Subjects with baseline eosinophils from 0 to 0.02×10^9/L (constituting less than 2% of all subjects analyzed) were censored from the primary analysis because of the inherent limitation to observe a decline from baseline.
Statistical analysis of the change from baseline was performed at month 6 to remove the effect of study dropouts in later months.

[3] = tested on: infiltrating white blood cells; details: OVA mice, 30 and 100 mg/kg, day 42, compared to OVA
eosinophils [4] = details: OVA mice, 100 mg/kg, day 42, p=0.0041
eosinophils [5] = details: for mean eosinophils at week 16 recovered to, of baseline levels: after one-month washout following week 12
Method: The Phase 2 trial was a two-part, double-blind study that evaluated the safety, tolerability, and clinical effects of dexpramipexole in ALS patients.
In Part 1, subjects were randomized to placebo (n=27), 50 mg/day (n=23), 150 mg/day (n=26), or 300 mg/day dexpramipexole (n=26) for 12 weeks.

basophils = details: 300 mg daily, remained reduced through month 12
Method: as §1
Changes in basophil counts were also analyzed in the Phase 3 trial.

eosinophils [6] = tested on: eosinophils; remark: listed apart in the source
Method: In a 39-week repeat-dose toxicology study, minipigs were dosed at 0, 7.5, 25, and 75 mg/kg dexpramipexole by daily oral gavage through Study Day 45 and at 0, 7.5, 25, and 50 mg/kg dexpramipexole from Study Day 46 to study completion.

## CCCN[C@@H]1CCc2nc(N)sc2C1 [dexpramipexole, (6R)-2-amino-4,5,6,7-tetrahydro-6-(propylamino)benzothiazole]
[1]
  tolerability: well-tolerated
Eosinophils [2]; 300 mg daily, after 8-12 weeks of treatment, persisted for the duration of the trial
  effect on peripheral blood eosinophil count: profound decrease
Eosinophils [2]; Phase 3 subject with highest baseline eosinophil count, persisted through month 12
  effect on eosinophil counts in a subject with elevated baseline eosinophil counts: decrease in eosinophil counts
Eosinophils [2]; subjects (n=42) with baseline >0.25×10^9/L, after 6 months of treatment
  decrease in eosinophil count in subjects with higher eosinophil counts: 75%
[3]
  infiltrating white blood cells in bronchoalveolar lavage fluid: dose-dependent decrease in infiltrating white blood cells
Eosinophils [4]
  circulating levels of eosinophils compared to vehicle-treated controls: significantly reduced
Eosinophils [5]; 150 mg/day group
  mean eosinophils at week 16 recovered to, of baseline levels: 47%
Eosinophils [5]; 300 mg/day group
  mean eosinophils at week 16 recovered to, of baseline levels: 73%
Eosinophils [5]; ALS subjects, Phase 2
  effect on eosinophil counts: dose- and time-dependent decrease in eosinophil counts
Eosinophils [5]; one Phase 2 subject, Part 2 baseline, persisted through month 12
  effect on eosinophil counts in a subject with hypereosinophilia at baseline: decrease in eosinophil counts
basophils
  time at which basophil decline reached plateau: ~4 month
Eosinophils [6]; minipig, in vivo
  safety assessment of eosinophil differences: not considered adverse
Eosinophils [6]; minipigs, 0, 7.5, 25 and 75 (50 from Study Day 46) mg/kg daily oral gavage, 39 weeks
  effect on eosinophils: dose- and time-dependent reduction in eosinophils
